pIC50: −log10 of the molar value. Positions of bridges follow the written chain, without caps; N, C: chain ends. Non-standard residues stand in square brackets, D forms with d. Residues, ends and D or L forms follow the SMILES beside them. Pra = C#CC[C@H](N)C(=O)O; Abu = CC[C@H](N)C(=O)O
Columns and labels:
Experiment in all cases: cell-based
hNav1.7 = hNav1.7 (Homo sapiens, UniProt Q15858); assay type: cell-based; details: for pIC50: IonWorks Quattro, use-dependent block, hNav1.7, read-out: IWQ Use Nav1.7
Chain of hNav1.7 (Q15858 whole entry, looked up): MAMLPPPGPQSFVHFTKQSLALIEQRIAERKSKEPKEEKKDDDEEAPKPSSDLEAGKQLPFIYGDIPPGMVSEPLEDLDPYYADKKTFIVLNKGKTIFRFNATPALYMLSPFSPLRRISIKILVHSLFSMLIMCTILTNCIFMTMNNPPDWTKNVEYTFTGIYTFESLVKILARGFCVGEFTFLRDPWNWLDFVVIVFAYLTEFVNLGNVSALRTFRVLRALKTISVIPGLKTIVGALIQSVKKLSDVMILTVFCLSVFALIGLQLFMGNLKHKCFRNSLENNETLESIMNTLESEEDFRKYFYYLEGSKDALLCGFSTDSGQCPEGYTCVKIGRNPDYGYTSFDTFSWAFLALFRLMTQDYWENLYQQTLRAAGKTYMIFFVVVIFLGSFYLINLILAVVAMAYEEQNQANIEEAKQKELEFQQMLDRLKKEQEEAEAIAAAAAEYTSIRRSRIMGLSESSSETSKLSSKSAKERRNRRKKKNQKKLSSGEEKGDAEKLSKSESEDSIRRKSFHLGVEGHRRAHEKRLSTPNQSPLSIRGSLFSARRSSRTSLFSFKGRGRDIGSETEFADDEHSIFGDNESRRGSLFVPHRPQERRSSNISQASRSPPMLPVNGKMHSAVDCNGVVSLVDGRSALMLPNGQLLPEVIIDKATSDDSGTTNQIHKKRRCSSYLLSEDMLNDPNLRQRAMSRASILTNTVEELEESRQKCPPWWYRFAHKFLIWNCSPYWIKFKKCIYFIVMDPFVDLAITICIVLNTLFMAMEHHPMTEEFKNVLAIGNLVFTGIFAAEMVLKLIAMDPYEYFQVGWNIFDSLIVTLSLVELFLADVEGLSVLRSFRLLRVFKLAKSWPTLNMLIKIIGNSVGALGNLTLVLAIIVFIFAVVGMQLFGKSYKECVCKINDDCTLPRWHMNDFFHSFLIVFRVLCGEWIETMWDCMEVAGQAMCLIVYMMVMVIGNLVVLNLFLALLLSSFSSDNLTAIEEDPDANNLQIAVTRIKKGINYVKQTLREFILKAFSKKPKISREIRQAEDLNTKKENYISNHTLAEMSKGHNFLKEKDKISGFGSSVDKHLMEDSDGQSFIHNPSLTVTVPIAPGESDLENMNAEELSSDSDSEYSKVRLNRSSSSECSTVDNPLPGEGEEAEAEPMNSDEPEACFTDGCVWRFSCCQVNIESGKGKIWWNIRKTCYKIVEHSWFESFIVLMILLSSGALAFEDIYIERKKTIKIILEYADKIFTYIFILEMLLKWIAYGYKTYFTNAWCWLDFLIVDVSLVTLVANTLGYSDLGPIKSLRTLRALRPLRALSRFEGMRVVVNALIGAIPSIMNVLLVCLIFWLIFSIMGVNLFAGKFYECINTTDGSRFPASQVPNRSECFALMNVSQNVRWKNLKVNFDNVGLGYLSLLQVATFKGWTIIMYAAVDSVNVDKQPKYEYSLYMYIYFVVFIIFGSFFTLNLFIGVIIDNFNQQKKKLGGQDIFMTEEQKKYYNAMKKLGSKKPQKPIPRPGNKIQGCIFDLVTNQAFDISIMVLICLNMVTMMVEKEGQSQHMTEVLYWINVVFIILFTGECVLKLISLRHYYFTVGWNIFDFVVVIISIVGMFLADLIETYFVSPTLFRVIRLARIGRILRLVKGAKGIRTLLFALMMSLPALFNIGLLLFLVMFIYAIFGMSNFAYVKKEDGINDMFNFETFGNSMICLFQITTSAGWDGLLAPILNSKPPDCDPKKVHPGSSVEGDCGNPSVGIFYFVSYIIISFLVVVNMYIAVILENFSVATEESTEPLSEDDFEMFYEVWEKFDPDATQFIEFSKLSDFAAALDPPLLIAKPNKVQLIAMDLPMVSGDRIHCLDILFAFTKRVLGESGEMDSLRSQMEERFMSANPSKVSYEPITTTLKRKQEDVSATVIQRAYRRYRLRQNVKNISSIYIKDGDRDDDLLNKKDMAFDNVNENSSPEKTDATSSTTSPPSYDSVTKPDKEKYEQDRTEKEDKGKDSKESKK

hNav1.4 = hNav1.4 (Homo sapiens, UniProt P35499); details: IonWorks Quattro, use-dependent block, hNav1.4; read-out: IWQ Use Nav1.4
Chain of hNav1.4 (P35499 whole entry, looked up): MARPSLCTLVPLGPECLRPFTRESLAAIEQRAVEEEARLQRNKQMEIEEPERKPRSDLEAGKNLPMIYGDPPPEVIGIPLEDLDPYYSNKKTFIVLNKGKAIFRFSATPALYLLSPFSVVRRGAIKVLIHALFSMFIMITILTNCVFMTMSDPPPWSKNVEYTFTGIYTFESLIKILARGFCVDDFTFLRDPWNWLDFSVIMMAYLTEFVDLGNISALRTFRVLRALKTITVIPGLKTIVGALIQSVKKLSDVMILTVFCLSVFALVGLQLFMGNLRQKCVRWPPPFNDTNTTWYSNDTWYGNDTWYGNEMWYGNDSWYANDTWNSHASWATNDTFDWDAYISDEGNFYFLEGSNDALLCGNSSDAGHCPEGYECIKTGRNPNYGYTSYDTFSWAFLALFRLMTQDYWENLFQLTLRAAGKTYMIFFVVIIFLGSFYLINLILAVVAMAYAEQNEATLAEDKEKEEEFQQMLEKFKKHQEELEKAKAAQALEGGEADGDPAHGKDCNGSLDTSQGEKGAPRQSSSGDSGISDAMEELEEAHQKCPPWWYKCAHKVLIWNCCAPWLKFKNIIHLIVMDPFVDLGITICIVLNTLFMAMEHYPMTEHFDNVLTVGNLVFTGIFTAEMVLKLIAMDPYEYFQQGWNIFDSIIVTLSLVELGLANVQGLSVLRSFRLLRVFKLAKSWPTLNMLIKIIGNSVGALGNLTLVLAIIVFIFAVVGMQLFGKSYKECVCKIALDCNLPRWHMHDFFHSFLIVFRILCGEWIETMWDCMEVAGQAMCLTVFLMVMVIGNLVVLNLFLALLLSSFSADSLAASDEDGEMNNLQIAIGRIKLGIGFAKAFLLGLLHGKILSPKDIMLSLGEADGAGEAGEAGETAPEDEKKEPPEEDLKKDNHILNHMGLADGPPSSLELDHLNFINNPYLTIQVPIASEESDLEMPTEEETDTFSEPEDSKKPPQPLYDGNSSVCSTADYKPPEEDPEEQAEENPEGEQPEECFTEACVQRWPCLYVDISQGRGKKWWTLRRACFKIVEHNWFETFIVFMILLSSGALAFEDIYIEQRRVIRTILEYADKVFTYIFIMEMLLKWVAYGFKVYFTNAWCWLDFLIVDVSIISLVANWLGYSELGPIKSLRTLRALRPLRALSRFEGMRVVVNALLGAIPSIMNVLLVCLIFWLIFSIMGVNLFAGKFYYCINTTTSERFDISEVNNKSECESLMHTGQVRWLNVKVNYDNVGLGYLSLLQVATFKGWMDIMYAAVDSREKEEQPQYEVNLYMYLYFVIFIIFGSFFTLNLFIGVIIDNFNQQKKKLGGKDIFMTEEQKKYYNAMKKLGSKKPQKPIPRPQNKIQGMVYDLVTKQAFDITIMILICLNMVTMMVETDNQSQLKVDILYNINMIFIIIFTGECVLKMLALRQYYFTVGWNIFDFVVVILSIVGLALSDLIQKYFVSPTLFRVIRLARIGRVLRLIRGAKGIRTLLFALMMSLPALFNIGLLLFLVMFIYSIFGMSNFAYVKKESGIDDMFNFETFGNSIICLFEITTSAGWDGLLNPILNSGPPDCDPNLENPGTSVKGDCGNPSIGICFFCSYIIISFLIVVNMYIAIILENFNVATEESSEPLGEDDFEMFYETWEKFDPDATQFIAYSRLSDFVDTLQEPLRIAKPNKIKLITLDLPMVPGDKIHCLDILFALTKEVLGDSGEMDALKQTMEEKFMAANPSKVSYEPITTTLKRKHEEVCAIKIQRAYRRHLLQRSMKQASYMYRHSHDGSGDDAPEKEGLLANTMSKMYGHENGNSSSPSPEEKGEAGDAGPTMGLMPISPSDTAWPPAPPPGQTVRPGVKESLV

hNav1.3 = hNav1.3 (Homo sapiens, UniProt Q9NY46); details: IonWorks Quattro, use-dependent block, hNav1.3; read-out: IWQ Use Nav1.3
hNav1.5 = hNav1.5 (Homo sapiens, UniProt Q14524); details: IonWorks Quattro, use-dependent block, hNav1.5; read-out: IWQ Use Nav1.5

Row | SMILES | pIC50 (hNav1.7) | pIC50 (hNav1.4) | pIC50 (hNav1.3) | pIC50 (hNav1.5) | Nav1.7/Nav1.3 (hNav1.7; ratio of IWQ Use values Nav1.7 to Nav1.3)
1 | CC[C@@H]1NC(=O)[C@@H]2CSSC[C@@H](C(=O)N[C@@H](CCCCN)C(=O)N[C@@H](Cc3ccc(O)cc3)C(=O)N[C@H](C(=O)N[C@@H](Cc3ccccc3)C(N)=O)C(C)C)NC(=O)[C@H](Cc3c[nH]c4ccccc34)NC(=O)[C@H](CCC(=O)O)NC(=O)[C@H](Cc3c[nH]cn3)NC(=O)[C@H]([C@@H](C)O)NC(=O)[C@H](CCCNC(=N)N)NC(=O)[C@H](CO)NC(=O)[C@H](CSSC[C@H](NC(=O)[C@H](CCCCN)NC(=O)[C@H](CCCNC(=N)N)NC(=O)[C@H](CC(C)C)NC(=O)[C@H](C)NC(=O)CNC(=O)[C@H](CC(C)C)NC(=O)[C@H](CC)NC(=O)[C@@H](N)CC(=O)O)C(=O)N[C@@H]([C@@H](C)CC)C(=O)N3CCC[C@H]3C(=O)N[C@@H](CC(=O)O)C(=O)N[C@@H](CC(N)=O)C(=O)N[C@@H](CC(=O)O)C(=O)N[C@@H](CCCCN)C(=O)N2)NC(=O)[C@H](C(C)C)NC(=O)[C@H](CC(C)C)NC(=O)[C@H](CC(N)=O)NC(=O)[C@@H]2CCCN2C(=O)[C@H](CCCNC(=N)N)NC1=O [compound 719] (H-D[Abu]LGALRKCIPDNDKC[Abu]RPNLVCSRTHEWCKYVF-NH2; disulfide 9-23, 16-30) | 5.37 | < 4.30 | < 5.30 | < 4.30 | –
2 | CC[C@@H]1NC(=O)[C@@H]2CSSC[C@@H](C(=O)N[C@@H](CCCCN)C(=O)N[C@@H](Cc3ccc(O)cc3)C(=O)N[C@H](C(=O)N[C@@H](Cc3ccccc3)C(N)=O)C(C)C)NC(=O)[C@H](Cc3c[nH]c4ccccc34)NC(=O)[C@H](CCC(=O)O)NC(=O)[C@H](Cc3c[nH]cn3)NC(=O)[C@H]([C@@H](C)O)NC(=O)[C@H](CCCNC(=N)N)NC(=O)[C@H](CO)NC(=O)[C@H](CSSC[C@H](NC(=O)[C@H](CCCCN)NC(=O)[C@H](CCCNC(=N)N)NC(=O)[C@H](CC(C)C)NC(=O)[C@@H](NC(=O)CNC(=O)[C@H](CC(C)C)NC(=O)[C@H](CC)NC(=O)[C@@H](N)CC(=O)O)C(C)C)C(=O)N[C@@H]([C@@H](C)CC)C(=O)N3CCC[C@H]3C(=O)N[C@@H](CC(=O)O)C(=O)N[C@@H](CC(N)=O)C(=O)N[C@@H](CC(=O)O)C(=O)N[C@@H](CCCCN)C(=O)N2)NC(=O)[C@H](C(C)C)NC(=O)[C@H](CC(C)C)NC(=O)[C@H](CC(N)=O)NC(=O)[C@@H]2CCCN2C(=O)[C@H](CCCNC(=N)N)NC1=O [compound 720] (H-D[Abu]LGVLRKCIPDNDKC[Abu]RPNLVCSRTHEWCKYVF-NH2; disulfide 9-23, 16-30) | < 5.30 | < 4.30 | < 5.30 | 4.48 | –
3 | C#CC[C@@H]1NC(=O)[C@H](CC(=O)O)NC(=O)[C@@H]2CCCN2C(=O)[C@H](CCC(=O)O)NC(=O)[C@@H]2CSSC[C@@H]3NC(=O)[C@H](C(C)C)NC(=O)[C@H](CC(C)C)NC(=O)[C@H](CC(N)=O)NC(=O)[C@@H]4CCCN4C(=O)[C@H](CCCNC(=N)N)NC(=O)[C@H](CSSC[C@H](NC(=O)[C@@H](N)CC(=O)O)C(=O)N[C@@H](CC(C)C)C(=O)NCC(=O)N[C@@H](C)C(=O)N[C@@H](CC(C)C)C(=O)N[C@@H](CCCNC(=N)N)C(=O)N[C@@H](CCCCN)C(=O)N2)NC(=O)[C@H](CSSC[C@@H](C(=O)N[C@@H](CCCCN)C(=O)N[C@@H](Cc2ccc(O)cc2)C(=O)N[C@H](C(=O)N[C@@H](Cc2ccccc2)C(N)=O)C(C)C)NC(=O)[C@H](Cc2c[nH]c4ccccc24)NC(=O)[C@H](CCCNC(=N)N)NC(=O)[C@H](Cc2c[nH]cn2)NC(=O)[C@H](CC(C)C)NC(=O)[C@H](CCCNC(=N)N)NC(=O)[C@H](CO)NC3=O)NC(=O)[C@H](CCCCN)NC(=O)[C@H](CC(=O)O)NC1=O [compound 800] (H-DCLGALRKCEPD[Pra]DKCCRPNLVCSRLHRWCKYVF-NH2; disulfide 2-17, 9-23, 16-30) | 6.15 | < 4.30 | 5.85 | < 4.30 | 0.5

From patent publication US9340590B2 (priority 2011, dated 2016)
